Measured values from ChEMBL document CHEMBL1201862, “PubChem BioAssay data set” (2004).
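Results reflect a 48-hour exposure of cells in 96-well plates to compound at five concentrations. GI50 = concentration required for 50% inhibition of growth.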 Calls of active or inactive are those of the source. Rule as the data show it: active = GI50 up to about 1.1 µM and inactive = higher.

What was measured:
Test in all cases: NCI-60 cell line screen, 48 h
NCI-H522 = test system: NCI-H522
UACC-257 = test system: UACC-257
NCI-H460 = test system: NCI-H460
SK-MEL-5 = test system: SK-MEL-5
SW-620 = test system: SW-620
NCI-H226 = test system: NCI-H226
K562 = test system: K562
IGROV-1 = test system: IGROV-1
MDA-MB-231 = test system: MDA-MB-231
OVCAR-5 = test system: OVCAR-5
OVCAR-4 = test system: OVCAR-4
NCI-H23 = test system: NCI-H23
CCRF-CEM = test system: CCRF-CEM
SK-OV-3 = test system: SK-OV-3
RPMI-8226 = test system: RPMI-8226
SF-268 = test system: SF-268
HL-60 = test system: HL-60
SR = test system: SR
MCF7 = test system: MCF7
HOP-62 = test system: HOP-62
MOLT-4 = test system: MOLT-4
BT-549 = test system: BT-549
SN12C = test system: SN12C
COLO 205 = test system: COLO 205
SF-539 = test system: SF-539
A498 = test system: A498
SK-MEL-2 = test system: SK-MEL-2
MDA-N = test system: MDA-N
HCT-15 = test system: HCT-15
UACC-62 = test system: UACC-62
MDA-MB-435 = test system: MDA-MB-435
A549 = test system: A549
EKVX = test system: EKVX
HOP-92 = test system: HOP-92
PC-3 = test system: PC-3
M14 = test system: M14
LOX IMVI = test system: LOX IMVI
SK-MEL-28 = test system: SK-MEL-28
ACHN = test system: ACHN
T47D = test system: T47D
OVCAR-3 = test system: OVCAR-3
CAKI-1 = test system: CAKI-1
Hs-578T = test system: Hs-578T
TK-10 = test system: TK-10
SNB-19 = test system: SNB-19
U-251 = test system: U-251
UO-31 = test system: UO-31
HCC 2998 = test system: HCC 2998
DU-145 = test system: DU-145
KM12 = test system: KM12
SF-295 = test system: SF-295
RXF 393 = test system: RXF 393
HCT-116 = test system: HCT-116
Malme-3M = test system: Malme-3M
HT-29 = test system: HT-29
786-0 = test system: 786-0

For `Cc1ccc(C(=O)/C(C#N)=C/Nc2c(C)n(C)n(-c3ccccc3)c2=O)cc1`, the GI50 (NCI-H522) was > 100 µM (inactive), the GI50 (UACC-257) was > 100 µM (inactive) and the GI50 (NCI-H460) was > 100 µM (inactive). For the same molecule, the GI50 (SK-MEL-5) was > 100 µM (inactive), the GI50 (SW-620) was > 100 µM (inactive) and the GI50 (NCI-H226) was > 100 µM (inactive). For the same molecule, the GI50 (K562) was > 100 µM (inactive), the GI50 (IGROV-1) was > 100 µM (inactive) and the GI50 (MDA-MB-231) was > 100 µM (inactive). For the same molecule, the GI50 (OVCAR-5) was > 100 µM (inactive), the GI50 (OVCAR-4) was > 100 µM (inactive) and the GI50 (NCI-H23) was > 100 µM (inactive). For the same molecule, the GI50 (CCRF-CEM) was > 100 µM (inactive), the GI50 (SK-OV-3) was > 100 µM (inactive) and the GI50 (RPMI-8226) was > 100 µM (inactive). For the same molecule, the GI50 (SF-268) was > 100 µM (inactive), the GI50 (HL-60) was > 100 µM (inactive) and the GI50 (SR) was > 100 µM (inactive). The GI50 (MCF7) was > 100 µM (inactive), the GI50 (HOP-62) was > 100 µM (inactive) and the GI50 (MOLT-4) was > 100 µM (inactive). The GI50 (BT-549) was > 100 µM (inactive), the GI50 (SN12C) was > 100 µM (inactive) and the GI50 (COLO 205) was > 100 µM (inactive). For the same molecule, the GI50 (SF-539) was > 100 µM (inactive), the GI50 (A498) was > 100 µM (inactive) and the GI50 (SK-MEL-2) was > 100 µM (inactive). For the same molecule, the GI50 (MDA-N) was > 100 µM (inactive), the GI50 (HCT-15) was greater than 100 µM and the GI50 (UACC-62) was > 100 µM (inactive). The GI50 (MDA-MB-435) was > 100 µM (inactive), the GI50 (A549) was > 100 µM (inactive) and the GI50 (EKVX) was > 100 µM (inactive). For the same molecule, the GI50 (HOP-92) was 46.2 µM (inactive), the GI50 (PC-3) was > 100 µM (inactive) and the GI50 (M14) was > 100 µM (inactive). The GI50 (LOX IMVI) was > 100 µM (inactive), the GI50 (SK-MEL-28) was > 100 µM (inactive) and the GI50 (ACHN) was > 100 µM (inactive). The GI50 (T47D) was > 100 µM (inactive), the GI50 (OVCAR-3) was > 100 µM (inactive) and the GI50 (CAKI-1) was > 100 µM (inactive). The GI50 (Hs-578T) was > 100 µM (inactive), the GI50 (TK-10) was > 100 µM (inactive) and the GI50 (SNB-19) was > 100 µM (inactive). The GI50 (U-251) was > 100 µM (inactive), the GI50 (UO-31) was > 100 µM (inactive) and the GI50 (HCC 2998) was > 100 µM (inactive). The GI50 (DU-145) was > 100 µM (inactive), the GI50 (KM12) was > 100 µM (inactive) and the GI50 (SF-295) was > 100 µM (inactive). For the same molecule, the GI50 (RXF 393) was > 100 µM (inactive), the GI50 (HCT-116) was > 100 µM (inactive) and the GI50 (Malme-3M) was > 100 µM (inactive). The GI50 (HT-29) was > 100 µM (inactive) and the GI50 (786-0) was > 100 µM (inactive).
